Measured values taken from the kinase profiling compilation of Christmann-Franck et al. (2016).

Columns and labels:
Assay in all cases: radiometric filter-binding kinase assay
[1] = molecular target: MAPK15 (human) (UniProt Q8TD08)
[2] = molecular target: MAPK14 (human) (UniProt Q16539)
[3] = molecular target: PIM3 (human) (UniProt Q86V86)
[4] = molecular target: NEK2 (human) (UniProt P51955)
[5] = molecular target: HIPK3 (human) (UniProt Q9H422)
[6] = molecular target: SRPK1 (human) (UniProt Q96SB4)
[7] = molecular target: PKN2 (human) (UniProt Q16513)
[8] = molecular target: RPS6KA5 KD1 KD2 (human) (UniProt O75582)
Chain of RPS6KA5 KD1 KD2 (human) (O75582 whole entry, looked up): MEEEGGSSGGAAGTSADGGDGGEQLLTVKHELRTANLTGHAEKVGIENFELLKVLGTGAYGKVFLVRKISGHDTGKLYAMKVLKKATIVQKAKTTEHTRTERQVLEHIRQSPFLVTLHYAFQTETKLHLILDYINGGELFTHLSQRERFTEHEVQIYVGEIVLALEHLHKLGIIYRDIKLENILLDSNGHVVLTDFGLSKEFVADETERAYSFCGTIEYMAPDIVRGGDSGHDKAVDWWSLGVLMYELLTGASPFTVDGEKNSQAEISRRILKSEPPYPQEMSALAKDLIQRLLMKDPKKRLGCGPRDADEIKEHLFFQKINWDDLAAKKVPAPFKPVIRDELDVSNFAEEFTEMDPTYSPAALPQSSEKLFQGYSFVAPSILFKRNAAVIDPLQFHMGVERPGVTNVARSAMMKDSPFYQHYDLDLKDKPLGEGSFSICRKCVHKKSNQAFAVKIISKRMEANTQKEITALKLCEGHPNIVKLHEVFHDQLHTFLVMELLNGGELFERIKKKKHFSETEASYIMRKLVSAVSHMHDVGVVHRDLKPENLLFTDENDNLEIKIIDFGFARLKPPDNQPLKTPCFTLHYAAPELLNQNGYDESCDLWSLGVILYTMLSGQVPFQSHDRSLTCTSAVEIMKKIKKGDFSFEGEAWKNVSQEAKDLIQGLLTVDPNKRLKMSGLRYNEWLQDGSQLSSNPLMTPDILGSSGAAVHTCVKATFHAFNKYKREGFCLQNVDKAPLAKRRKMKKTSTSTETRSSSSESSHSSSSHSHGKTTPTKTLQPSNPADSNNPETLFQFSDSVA

[9] = system: SGK1 (human), O00141 [S422D]
[10] = molecular target: CSNK1D (human) (UniProt P48730)
[11] = molecular target: RPS6KA3 KD1 KD2 (human) (UniProt P51812)
[12] = system: AKT2 (human), P31751 [S474D]
[13] = molecular target: PAK7 (human) (UniProt Q9P286)
[14] = molecular target: PAK6 (human) (UniProt Q9NQU5)
[15] = molecular target: PAK4 (human) (UniProt O96013)
[16] = molecular target: CAMKK2 (human) (UniProt Q96RR4)
Chain of CAMKK2 (human) (Q96RR4 whole entry, looked up): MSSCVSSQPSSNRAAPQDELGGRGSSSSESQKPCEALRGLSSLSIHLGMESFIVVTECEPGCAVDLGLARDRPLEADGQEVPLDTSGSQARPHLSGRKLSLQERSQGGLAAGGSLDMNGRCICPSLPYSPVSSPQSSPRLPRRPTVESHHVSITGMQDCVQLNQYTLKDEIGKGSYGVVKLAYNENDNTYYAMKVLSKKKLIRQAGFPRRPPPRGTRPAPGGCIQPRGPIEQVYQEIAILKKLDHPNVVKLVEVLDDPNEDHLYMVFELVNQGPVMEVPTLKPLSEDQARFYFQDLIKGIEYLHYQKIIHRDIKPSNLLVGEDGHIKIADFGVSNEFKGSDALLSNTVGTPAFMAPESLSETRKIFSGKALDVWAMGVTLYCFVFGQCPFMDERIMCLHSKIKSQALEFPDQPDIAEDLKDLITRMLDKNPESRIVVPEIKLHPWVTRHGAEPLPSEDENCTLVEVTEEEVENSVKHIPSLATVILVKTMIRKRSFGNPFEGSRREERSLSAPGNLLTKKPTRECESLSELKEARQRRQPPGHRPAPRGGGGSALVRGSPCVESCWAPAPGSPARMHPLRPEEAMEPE

[17] = molecular target: PIM2 (human) (UniProt Q9P1W9)
Chain of PIM2 (human) (Q9P1W9 whole entry, looked up): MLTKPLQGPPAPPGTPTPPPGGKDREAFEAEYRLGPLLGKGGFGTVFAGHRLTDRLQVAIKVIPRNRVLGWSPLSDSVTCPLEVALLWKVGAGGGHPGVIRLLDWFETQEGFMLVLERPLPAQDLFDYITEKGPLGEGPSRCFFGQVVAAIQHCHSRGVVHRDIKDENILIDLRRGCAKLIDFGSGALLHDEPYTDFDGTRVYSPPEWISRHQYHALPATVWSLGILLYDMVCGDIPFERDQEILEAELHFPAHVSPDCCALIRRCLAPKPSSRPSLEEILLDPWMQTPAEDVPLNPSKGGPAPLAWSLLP

[18] = molecular target: CHEK1 (human) (UniProt O14757)
[19] = molecular target: MAPK3 (human) (UniProt P27361)
[20] = molecular target: DYRK1A (human) (UniProt Q13627)
[21] = molecular target: PLK1 (human) (UniProt P53350)
Chain of PLK1 (human) (P53350 whole entry, looked up): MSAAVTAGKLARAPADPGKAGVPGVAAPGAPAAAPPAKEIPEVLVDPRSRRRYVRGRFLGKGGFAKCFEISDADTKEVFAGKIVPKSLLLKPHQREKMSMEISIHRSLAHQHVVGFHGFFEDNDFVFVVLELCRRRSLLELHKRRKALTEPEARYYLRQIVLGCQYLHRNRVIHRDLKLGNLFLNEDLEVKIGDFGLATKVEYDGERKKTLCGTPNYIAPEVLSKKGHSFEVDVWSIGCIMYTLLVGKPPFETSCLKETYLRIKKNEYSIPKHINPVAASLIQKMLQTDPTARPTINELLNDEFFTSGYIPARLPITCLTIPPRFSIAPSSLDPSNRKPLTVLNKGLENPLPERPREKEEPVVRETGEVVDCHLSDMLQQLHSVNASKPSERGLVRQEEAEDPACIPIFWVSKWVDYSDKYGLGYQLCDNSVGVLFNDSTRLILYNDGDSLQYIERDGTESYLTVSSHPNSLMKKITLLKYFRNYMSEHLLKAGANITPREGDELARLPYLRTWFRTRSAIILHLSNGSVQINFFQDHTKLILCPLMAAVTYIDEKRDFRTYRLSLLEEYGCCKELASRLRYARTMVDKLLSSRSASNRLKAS

[22] = molecular target: MAPK12 (human) (UniProt P53778)
Chain of MAPK12 (human) (P53778 whole entry, looked up): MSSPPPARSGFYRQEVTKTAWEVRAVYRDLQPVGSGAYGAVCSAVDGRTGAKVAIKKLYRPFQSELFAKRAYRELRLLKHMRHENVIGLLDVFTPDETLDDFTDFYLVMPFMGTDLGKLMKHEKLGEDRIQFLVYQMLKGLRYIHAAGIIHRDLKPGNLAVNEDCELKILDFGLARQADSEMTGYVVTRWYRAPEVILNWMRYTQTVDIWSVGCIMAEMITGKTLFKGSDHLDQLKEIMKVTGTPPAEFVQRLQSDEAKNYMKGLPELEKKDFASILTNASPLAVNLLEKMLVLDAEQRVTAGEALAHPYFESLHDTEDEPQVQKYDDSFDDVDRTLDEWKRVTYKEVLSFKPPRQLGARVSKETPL

[23] = molecular target: MAPKAPK2 (human) (UniProt P49137)
[24] = molecular target: NEK6 (human) (UniProt Q9HC98)
[25] = molecular target: MST4 (human) (UniProt Q9P289)
[26] = molecular target: IGF1R (human) (UniProt P08069)
Chain of IGF1R (human) (P08069 whole entry, looked up): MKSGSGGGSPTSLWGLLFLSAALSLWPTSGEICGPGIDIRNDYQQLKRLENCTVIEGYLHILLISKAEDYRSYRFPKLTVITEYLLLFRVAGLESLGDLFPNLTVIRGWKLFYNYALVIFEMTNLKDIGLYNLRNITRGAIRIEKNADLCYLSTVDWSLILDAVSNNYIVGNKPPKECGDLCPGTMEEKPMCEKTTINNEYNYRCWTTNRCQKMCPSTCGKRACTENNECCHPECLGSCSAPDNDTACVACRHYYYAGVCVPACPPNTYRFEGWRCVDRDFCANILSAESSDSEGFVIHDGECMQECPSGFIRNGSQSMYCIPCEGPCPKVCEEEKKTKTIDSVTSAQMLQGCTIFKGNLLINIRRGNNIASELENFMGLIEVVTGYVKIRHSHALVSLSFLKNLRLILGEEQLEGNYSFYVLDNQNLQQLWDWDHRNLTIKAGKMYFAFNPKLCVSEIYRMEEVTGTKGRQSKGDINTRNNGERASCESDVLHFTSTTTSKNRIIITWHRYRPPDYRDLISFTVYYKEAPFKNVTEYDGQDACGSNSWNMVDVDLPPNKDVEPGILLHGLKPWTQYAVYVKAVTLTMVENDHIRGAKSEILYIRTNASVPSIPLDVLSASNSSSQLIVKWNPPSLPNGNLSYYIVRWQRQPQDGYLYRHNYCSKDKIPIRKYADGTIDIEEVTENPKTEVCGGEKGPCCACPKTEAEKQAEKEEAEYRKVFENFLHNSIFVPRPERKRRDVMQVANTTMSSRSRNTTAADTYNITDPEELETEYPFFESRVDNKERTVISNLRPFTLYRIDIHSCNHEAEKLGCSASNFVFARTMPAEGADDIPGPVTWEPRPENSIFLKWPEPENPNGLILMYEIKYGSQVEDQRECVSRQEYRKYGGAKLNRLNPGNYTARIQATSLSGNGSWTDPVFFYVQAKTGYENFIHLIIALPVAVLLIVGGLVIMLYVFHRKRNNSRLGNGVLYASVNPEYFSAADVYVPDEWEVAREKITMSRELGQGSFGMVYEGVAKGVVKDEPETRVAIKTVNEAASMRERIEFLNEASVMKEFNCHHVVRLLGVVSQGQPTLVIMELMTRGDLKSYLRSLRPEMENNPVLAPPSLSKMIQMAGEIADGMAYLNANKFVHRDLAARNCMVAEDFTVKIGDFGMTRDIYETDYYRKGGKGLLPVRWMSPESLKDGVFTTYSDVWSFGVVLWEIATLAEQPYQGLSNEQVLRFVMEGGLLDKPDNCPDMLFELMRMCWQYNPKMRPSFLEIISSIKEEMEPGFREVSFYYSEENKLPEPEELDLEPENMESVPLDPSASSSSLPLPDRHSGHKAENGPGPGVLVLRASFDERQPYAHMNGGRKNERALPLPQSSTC

[27] = molecular target: IKBKE (human) (UniProt Q14164)
Chain of IKBKE (human) (Q14164 whole entry, looked up): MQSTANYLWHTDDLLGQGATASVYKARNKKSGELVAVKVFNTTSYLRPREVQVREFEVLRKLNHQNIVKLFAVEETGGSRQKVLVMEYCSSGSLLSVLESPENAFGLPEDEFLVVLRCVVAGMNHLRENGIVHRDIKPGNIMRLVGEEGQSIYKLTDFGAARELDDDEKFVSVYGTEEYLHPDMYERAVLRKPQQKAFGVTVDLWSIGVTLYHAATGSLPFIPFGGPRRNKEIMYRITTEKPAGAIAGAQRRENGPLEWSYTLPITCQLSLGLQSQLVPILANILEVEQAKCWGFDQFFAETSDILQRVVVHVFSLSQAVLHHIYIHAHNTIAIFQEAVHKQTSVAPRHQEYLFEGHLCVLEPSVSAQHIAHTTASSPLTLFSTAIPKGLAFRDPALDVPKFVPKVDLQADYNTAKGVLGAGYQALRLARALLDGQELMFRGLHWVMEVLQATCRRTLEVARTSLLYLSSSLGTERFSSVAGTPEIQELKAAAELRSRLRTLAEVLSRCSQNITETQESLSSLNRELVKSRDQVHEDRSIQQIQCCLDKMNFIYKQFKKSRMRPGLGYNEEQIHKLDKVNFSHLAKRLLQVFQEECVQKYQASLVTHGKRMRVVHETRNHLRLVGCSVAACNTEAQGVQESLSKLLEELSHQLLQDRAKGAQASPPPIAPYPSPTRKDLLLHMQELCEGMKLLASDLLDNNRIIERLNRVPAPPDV

Cn1nc(Nc2ccc(F)cc2)c2c(N)ncnc21
residual activity ([1]; compound 1.0 µM): 76%
residual activity ([1]; compound 10.0 µM): 70%
residual activity ([2]; compound 1.0 µM): 93%
residual activity ([2]; compound 10.0 µM): 80%
residual activity ([3]; compound 1.0 µM): 101%
residual activity ([3]; compound 10.0 µM): 95%
residual activity ([4]; compound 1.0 µM): 102%
residual activity ([4]; compound 10.0 µM): 100%
residual activity ([5]; compound 1.0 µM): 143%
residual activity ([5]; compound 10.0 µM): 136%
residual activity ([6]; compound 1.0 µM): 137%
residual activity ([6]; compound 10.0 µM): 129%
residual activity ([7]; compound 1.0 µM): 103%
residual activity ([7]; compound 10.0 µM): 109%
residual activity ([8]; compound 1.0 µM): 97%
residual activity ([8]; compound 10.0 µM): 84%
residual activity ([9]; compound 1.0 µM): 97%
residual activity ([9]; compound 10.0 µM): 98%
residual activity ([10]; compound 1.0 µM): 97%
residual activity ([10]; compound 10.0 µM): 62%
residual activity ([11]; compound 1.0 µM): 110%
residual activity ([11]; compound 10.0 µM): 107%
residual activity ([12]; compound 1.0 µM): 103%
residual activity ([12]; compound 10.0 µM): 103%
residual activity ([13]; compound 1.0 µM): 109%
residual activity ([13]; compound 10.0 µM): 125%
residual activity ([14]; compound 1.0 µM): 113%
residual activity ([14]; compound 10.0 µM): 101%
residual activity ([15]; compound 1.0 µM): 86%
residual activity ([15]; compound 10.0 µM): 97%
residual activity ([16]; compound 1.0 µM): 112%
residual activity ([16]; compound 10.0 µM): 120%
residual activity ([17]; compound 1.0 µM): 100%
residual activity ([17]; compound 10.0 µM): 109%
residual activity ([18]; compound 1.0 µM): 118%
residual activity ([18]; compound 10.0 µM): 112%
residual activity ([19]; compound 1.0 µM): 124%
residual activity ([19]; compound 10.0 µM): 111%
residual activity ([20]; compound 1.0 µM): 105%
residual activity ([20]; compound 10.0 µM): 101%
residual activity ([21]; compound 1.0 µM): 92%
residual activity ([21]; compound 10.0 µM): 94%
residual activity ([22]; compound 1.0 µM): 113%
residual activity ([22]; compound 10.0 µM): 112%
residual activity ([23]; compound 1.0 µM): 97%
residual activity ([23]; compound 10.0 µM): 95%
residual activity ([24]; compound 1.0 µM): 95%
residual activity ([24]; compound 10.0 µM): 95%

Cc1cc(SCc2sc(-c3ccc(C(F)(F)F)cc3)nc2C)ccc1OCC(=O)O
residual activity ([1]; compound 1.0 µM): 103%
residual activity ([1]; compound 10.0 µM): 109%
residual activity ([25]; compound 1.0 µM): 104%
residual activity ([25]; compound 10.0 µM): 83%
residual activity ([2]; compound 1.0 µM): 82%
residual activity ([2]; compound 10.0 µM): 98%
residual activity ([3]; compound 1.0 µM): 86%
residual activity ([3]; compound 10.0 µM): 72%
residual activity ([4]; compound 1.0 µM): 94%
residual activity ([4]; compound 10.0 µM): 153%
residual activity ([6]; compound 1.0 µM): 96%
residual activity ([6]; compound 10.0 µM): 87%
residual activity ([26]; compound 1.0 µM): 87%
residual activity ([7]; compound 1.0 µM): 102%
residual activity ([7]; compound 10.0 µM): 92%
residual activity ([8]; compound 1.0 µM): 96%
residual activity ([8]; compound 10.0 µM): 92%
residual activity ([27]; compound 1.0 µM): 92%
residual activity ([27]; compound 10.0 µM): 92%
residual activity ([9]; compound 1.0 µM): 111%
residual activity ([9]; compound 10.0 µM): 109%
residual activity ([10]; compound 1.0 µM): 82%
residual activity ([10]; compound 10.0 µM): 80%
residual activity ([11]; compound 1.0 µM): 94%
residual activity ([12]; compound 1.0 µM): 103%
residual activity ([12]; compound 10.0 µM): 103%
residual activity ([13]; compound 1.0 µM): 97%
residual activity ([13]; compound 10.0 µM): 111%
residual activity ([14]; compound 1.0 µM): 97%
residual activity ([14]; compound 10.0 µM): 109%
residual activity ([15]; compound 1.0 µM): 87%
residual activity ([15]; compound 10.0 µM): 66%
residual activity ([16]; compound 1.0 µM): 86%
residual activity ([16]; compound 10.0 µM): 83%
residual activity ([17]; compound 1.0 µM): 99%
residual activity ([17]; compound 10.0 µM): 106%
residual activity ([18]; compound 1.0 µM): 102%
residual activity ([18]; compound 10.0 µM): 120%
residual activity ([19]; compound 1.0 µM): 115%
residual activity ([20]; compound 1.0 µM): 87%
residual activity ([20]; compound 10.0 µM): 59%
residual activity ([21]; compound 1.0 µM): 75%
residual activity ([21]; compound 10.0 µM): 60%
residual activity ([22]; compound 1.0 µM): 108%
residual activity ([22]; compound 10.0 µM): 106%
residual activity ([23]; compound 1.0 µM): 97%
residual activity ([23]; compound 10.0 µM): 84%
residual activity ([24]; compound 1.0 µM): 101%

NC(=O)Nc1ccc2c(c1)/C(=C/c1cc(-c3cccnc3)c[nH]1)C(=O)N2
residual activity ([1]; compound 0.1 µM): 5%
residual activity ([1]; compound 1.0 µM): 2%
residual activity ([1]; compound 10.0 µM): 1%
residual activity ([25]; compound 1.0 µM): 18%
residual activity ([25]; compound 10.0 µM): 21%
residual activity ([2]; compound 0.1 µM): 81%
residual activity ([2]; compound 1.0 µM): 80%
residual activity ([2]; compound 10.0 µM): 45%
residual activity ([3]; compound 0.1 µM): 30%
residual activity ([3]; compound 1.0 µM): 9%
residual activity ([3]; compound 10.0 µM): 7%
residual activity ([4]; compound 0.1 µM): 100%
residual activity ([4]; compound 1.0 µM): 75%
residual activity ([4]; compound 10.0 µM): 28%
residual activity ([6]; compound 0.1 µM): 90%
residual activity ([6]; compound 1.0 µM): 75%
residual activity ([6]; compound 10.0 µM): 36%
residual activity ([26]; compound 1.0 µM): 33%
residual activity ([26]; compound 10.0 µM): 1%
residual activity ([7]; compound 0.1 µM): 25%
residual activity ([7]; compound 1.0 µM): 5%
residual activity ([7]; compound 10.0 µM): 6%
residual activity ([8]; compound 0.1 µM): 98%
residual activity ([8]; compound 1.0 µM): 73%
residual activity ([8]; compound 10.0 µM): 30%
residual activity ([27]; compound 0.1 µM): 51%
residual activity ([27]; compound 1.0 µM): 12%
residual activity ([27]; compound 10.0 µM): 11%
residual activity ([9]; compound 0.1 µM): 77%
residual activity ([9]; compound 1.0 µM): 32%
residual activity ([9]; compound 10.0 µM): 6%
residual activity ([10]; compound 0.1 µM): 90%
residual activity ([10]; compound 1.0 µM): 59%
residual activity ([10]; compound 10.0 µM): 20%
residual activity ([11]; compound 0.1 µM): 38%
residual activity ([11]; compound 1.0 µM): 32%
residual activity ([11]; compound 10.0 µM): 22%
residual activity ([12]; compound 0.1 µM): 88%
residual activity ([12]; compound 1.0 µM): 77%
residual activity ([12]; compound 10.0 µM): 36%
residual activity ([13]; compound 0.1 µM): 75%
residual activity ([13]; compound 1.0 µM): 43%
residual activity ([13]; compound 10.0 µM): 8%
residual activity ([14]; compound 0.1 µM): 86%
residual activity ([14]; compound 1.0 µM): 77%
residual activity ([14]; compound 10.0 µM): 38%
residual activity ([15]; compound 0.1 µM): 64%
residual activity ([15]; compound 1.0 µM): 31%
residual activity ([16]; compound 0.1 µM): 67%
residual activity ([16]; compound 1.0 µM): 41%
residual activity ([16]; compound 10.0 µM): 35%
residual activity ([17]; compound 0.1 µM): 76%
residual activity ([17]; compound 1.0 µM): 34%
residual activity ([17]; compound 10.0 µM): 8%
residual activity ([18]; compound 0.1 µM): 85%
residual activity ([18]; compound 1.0 µM): 4%
residual activity ([18]; compound 10.0 µM): 1%
residual activity ([19]; compound 0.1 µM): 71%
residual activity ([19]; compound 10.0 µM): 4%
residual activity ([20]; compound 0.1 µM): 42%
residual activity ([20]; compound 1.0 µM): 11%
residual activity ([21]; compound 0.1 µM): 86%
residual activity ([21]; compound 1.0 µM): 42%
residual activity ([21]; compound 10.0 µM): 18%
residual activity ([22]; compound 0.1 µM): 93%
residual activity ([22]; compound 1.0 µM): 86%
residual activity ([23]; compound 0.1 µM): 86%
residual activity ([23]; compound 1.0 µM): 49%
residual activity ([23]; compound 10.0 µM): 10%
residual activity ([24]; compound 0.1 µM): 92%
residual activity ([24]; compound 1.0 µM): 76%
residual activity ([24]; compound 10.0 µM): 38%
